Active and inactive are the calls of the source. The calls are words filed in the database; no cut-off is given here.

In general, Emax refers to the size of the effect at its maximum, as opposed to the concentration needed.

For assay [1], the species on record is Homo sapiens. As to the kind of experiment: Activation of recombinant His-tagged human cytosolic GPX4 U46C mutant expressed in Escherichia coli M15 assessed as increase in oxidized glutathione-mediated oxidation of NADPH to NADP+ at 0.4 to 250 uM using tert-butyl hydroperoxide as substrate preincubated for 5 mins followed by substrate addition measured for 6 mins by glutathione reductase enzyme coupled fluorescence assay relative to control.

For assay [2], the target named is T1, Phospholipid hydroperoxide glutathione peroxidase GPX4 (Homo sapiens) (UniProt P36969).
T1 sequence (whole entry): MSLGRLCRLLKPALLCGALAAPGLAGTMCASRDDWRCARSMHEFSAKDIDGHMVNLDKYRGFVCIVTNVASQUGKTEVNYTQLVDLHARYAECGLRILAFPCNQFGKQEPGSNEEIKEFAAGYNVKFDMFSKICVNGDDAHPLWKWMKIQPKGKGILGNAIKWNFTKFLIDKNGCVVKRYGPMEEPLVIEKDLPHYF
The assay can be described thus: Activation of GPX4 in A23187-stimulated human PMN leukocytes assessed as increase in 5-HETE/LTB4 ratio preincubated for 15 mins followed by A23187 addition and measured after 120 mins by LC-MS analysis.

In assay [3] the target is T2, Prostaglandin G/H synthase 2 (Homo sapiens) (UniProt P35354).
T2 sequence (whole entry): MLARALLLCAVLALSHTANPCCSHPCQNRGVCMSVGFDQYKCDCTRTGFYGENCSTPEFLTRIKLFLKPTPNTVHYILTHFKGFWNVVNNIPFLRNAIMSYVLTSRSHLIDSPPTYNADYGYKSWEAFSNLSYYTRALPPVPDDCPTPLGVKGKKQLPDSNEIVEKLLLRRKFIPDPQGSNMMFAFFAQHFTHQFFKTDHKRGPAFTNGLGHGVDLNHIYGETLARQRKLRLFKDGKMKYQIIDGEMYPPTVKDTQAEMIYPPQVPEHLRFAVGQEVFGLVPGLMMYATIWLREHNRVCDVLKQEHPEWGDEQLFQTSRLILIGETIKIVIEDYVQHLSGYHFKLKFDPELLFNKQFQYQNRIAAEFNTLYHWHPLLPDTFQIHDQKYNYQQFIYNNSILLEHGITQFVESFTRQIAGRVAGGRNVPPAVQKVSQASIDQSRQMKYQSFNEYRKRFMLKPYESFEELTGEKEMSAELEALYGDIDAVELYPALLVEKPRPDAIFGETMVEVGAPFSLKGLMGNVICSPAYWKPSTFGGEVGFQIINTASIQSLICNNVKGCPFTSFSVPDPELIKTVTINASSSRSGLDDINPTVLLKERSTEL
The assay can be described thus: Inhibition of COX2 (unknown origin) at 500 uM preincubated for 15 mins followed by arachidonic acid substrate addition in presence of TMPD by spectrophotometric method.

For assay [4], the target named is T3, Polyunsaturated fatty acid lipoxygenase ALOX15 (Homo sapiens) (UniProt P16050).
T3 sequence (whole entry): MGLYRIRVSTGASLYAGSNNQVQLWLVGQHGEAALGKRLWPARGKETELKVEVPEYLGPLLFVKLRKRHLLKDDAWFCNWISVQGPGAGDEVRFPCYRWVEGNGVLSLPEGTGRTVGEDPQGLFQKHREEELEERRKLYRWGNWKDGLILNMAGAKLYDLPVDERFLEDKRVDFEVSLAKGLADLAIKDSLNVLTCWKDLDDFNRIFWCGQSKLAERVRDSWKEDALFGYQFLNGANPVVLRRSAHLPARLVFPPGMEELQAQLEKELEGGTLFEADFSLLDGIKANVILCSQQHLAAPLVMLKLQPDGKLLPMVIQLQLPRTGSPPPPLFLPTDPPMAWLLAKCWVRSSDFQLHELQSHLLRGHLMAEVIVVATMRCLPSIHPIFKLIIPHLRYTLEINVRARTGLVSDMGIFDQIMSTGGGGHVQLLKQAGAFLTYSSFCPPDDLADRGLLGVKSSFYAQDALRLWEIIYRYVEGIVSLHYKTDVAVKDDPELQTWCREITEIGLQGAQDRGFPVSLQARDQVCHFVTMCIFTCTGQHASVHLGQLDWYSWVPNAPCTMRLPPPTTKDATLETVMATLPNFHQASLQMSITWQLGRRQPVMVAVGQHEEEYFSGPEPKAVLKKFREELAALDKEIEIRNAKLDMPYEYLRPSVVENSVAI
As to the kind of experiment: Inhibition of 15-LOX (unknown origin) at 500 uM preincubated for 1 mins followed by arachidonic acid substrate addition by spectrophotometric method.

The species named for assay [5] is Homo sapiens. As to the kind of experiment: Activation of recombinant His-tagged human cytosolic GPX4 U46C mutant expressed in Escherichia coli M15 assessed as increase in oxidized glutathione-mediated oxidation of NADPH to NADP+ at 200 uM using tert-butyl hydroperoxide as substrate preincubated for 5 mins followed by substrate addition measured for 6 mins by glutathione reductase enzyme coupled fluorescence assay relative to control.

For assay [6], the species on record is Homo sapiens. The assay can be described thus: Activation of recombinant human GPX4 D21A/U46C double mutant expressed in Escherichia coli M15 assessed as increase in oxidized glutathione-mediated oxidation of NADPH to NADP+ using tert-butyl hydroperoxide as substrate preincubated for 5 mins followed by substrate addition measured for 6 mins by glutathione reductase enzyme coupled fluorescence assay relative to GPX4 U46C mutant control.

The species entered for assay [7] is Homo sapiens. The assay can be described thus: Activation of recombinant human GPX4 D23A/U46C double mutant expressed in Escherichia coli M15 assessed as increase in oxidized glutathione-mediated oxidation of NADPH to NADP+ using tert-butyl hydroperoxide as substrate preincubated for 5 mins followed by substrate addition measured for 6 mins by glutathione reductase enzyme coupled fluorescence assay relative to GPX4 U46C mutant control.

Assay [8] has as its target Phospholipid hydroperoxide glutathione peroxidase GPX4 (Mus musculus) (UniProt O70325). As to the kind of experiment: Activation of GPX4 in MEF assessed as increase in oxidized glutathione-mediated oxidation of NADPH to NADP+ using tert-butyl hydroperoxide as substrate preincubated for 5 mins followed by substrate addition measured for 6 mins by glutathione reductase enzyme coupled fluorescence assay. In kind it is cell-based.

For assay [9] the target is unchanged. As to the kind of experiment: Activation of GPX4 in MEF assessed as increase in […] protection against CHOOH-induced cell death at 200 uM. In kind it is cell-based.

Phospholipid hydroperoxide glutathione peroxidase GPX4 (Mus musculus), sequence (O70325 whole entry): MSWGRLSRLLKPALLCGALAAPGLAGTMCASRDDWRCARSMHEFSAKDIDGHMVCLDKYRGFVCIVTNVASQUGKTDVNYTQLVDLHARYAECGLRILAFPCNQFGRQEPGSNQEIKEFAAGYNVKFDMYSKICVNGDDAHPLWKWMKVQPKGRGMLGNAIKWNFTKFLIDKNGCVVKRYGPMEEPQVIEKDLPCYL

As to `NS(=O)(=O)c1ccc(NC(S)=NCc2ccc(Cl)cc2)cc1`, the maximal response (Emax) in the assay listed under Homo sapiens [1] amounted to 263%. The Activity entry in assay [2] was “Dose-dependent effect”; in the assay listed under Homo sapiens [5] it was 127%; in assay [8], “Dose-dependent effect”. The inhibition entry in assay [3] and in assay [4] was “inactive” throughout. Further, the EC150 in the assay filed under Homo sapiens [6] was found to be 618 µM; in the assay listed under Homo sapiens [7], 372 µM. For the same compound, in [9], the outcome was Active.
